Experimental findings from ChEMBL document CHEMBL6103549, “PRMT7 in cancer: Structure, effects, and therapeutic potentials” (Eur J Med Chem, 2025) are described below.

Test [1] relates to MCF7. In words: Antiproliferative activity against human MCF7 cells assessed as reduction in cell viability by MTT assay. In kind it is functional, cell-based.
Test [2] is described as follows: Antiproliferative activity against human MEF cells assessed as reduction in cell viability by MTT assay. In kind it is functional, cell-based.
Test [3] deals with KB. In words: Antiproliferative activity against human KB cells assessed as reduction in cell viability by MTT assay. Type of test: functional, cell-based.
In test [4] the test system is HepG2. The test can be described thus: Antiproliferative activity against human HepG2 cells assessed as reduction in cell viability by MTT assay. Type of test: functional, cell-based.
In test [5] the target is T1, Protein arginine N-methyltransferase 7 (Homo sapiens, UniProt Q9NVM4).
T1 sequence (Q9NVM4 whole entry): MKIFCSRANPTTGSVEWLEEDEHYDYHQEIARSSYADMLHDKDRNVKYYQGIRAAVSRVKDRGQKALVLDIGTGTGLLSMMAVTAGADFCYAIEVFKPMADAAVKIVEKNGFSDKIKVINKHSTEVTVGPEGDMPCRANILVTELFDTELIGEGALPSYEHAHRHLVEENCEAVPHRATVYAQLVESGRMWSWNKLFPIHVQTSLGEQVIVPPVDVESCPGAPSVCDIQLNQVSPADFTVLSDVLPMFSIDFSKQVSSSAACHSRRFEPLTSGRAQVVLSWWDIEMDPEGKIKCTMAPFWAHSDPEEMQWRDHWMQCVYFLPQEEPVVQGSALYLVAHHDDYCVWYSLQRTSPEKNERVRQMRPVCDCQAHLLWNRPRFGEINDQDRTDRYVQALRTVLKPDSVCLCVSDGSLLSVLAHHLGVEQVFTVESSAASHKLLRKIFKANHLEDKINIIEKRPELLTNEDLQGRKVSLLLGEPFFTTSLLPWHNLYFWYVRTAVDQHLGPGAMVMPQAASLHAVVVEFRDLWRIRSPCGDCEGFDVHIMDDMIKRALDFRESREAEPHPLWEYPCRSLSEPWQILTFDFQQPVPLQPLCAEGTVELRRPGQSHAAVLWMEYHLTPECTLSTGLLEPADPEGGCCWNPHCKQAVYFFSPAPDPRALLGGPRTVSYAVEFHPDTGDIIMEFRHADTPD
The test can be described thus: Inhibition of human PRMT7 in HEK293T cells assessed as reduction in HSP70 methylation. In kind it is cell-based.

The target in test [6] is T1, Protein arginine N-methyltransferase 7. The test can be described thus: Inhibition of human PRMT7 in HCT-116 cells assessed as reduction in HSP70 methylation. Type of test: cell-based.
The target in test [7] is Protein arginine N-methyltransferase 5 (Homo sapiens, UniProt O14744). In words: Inhibition of human PRMT5.
Protein arginine N-methyltransferase 5, sequence (O14744 whole entry): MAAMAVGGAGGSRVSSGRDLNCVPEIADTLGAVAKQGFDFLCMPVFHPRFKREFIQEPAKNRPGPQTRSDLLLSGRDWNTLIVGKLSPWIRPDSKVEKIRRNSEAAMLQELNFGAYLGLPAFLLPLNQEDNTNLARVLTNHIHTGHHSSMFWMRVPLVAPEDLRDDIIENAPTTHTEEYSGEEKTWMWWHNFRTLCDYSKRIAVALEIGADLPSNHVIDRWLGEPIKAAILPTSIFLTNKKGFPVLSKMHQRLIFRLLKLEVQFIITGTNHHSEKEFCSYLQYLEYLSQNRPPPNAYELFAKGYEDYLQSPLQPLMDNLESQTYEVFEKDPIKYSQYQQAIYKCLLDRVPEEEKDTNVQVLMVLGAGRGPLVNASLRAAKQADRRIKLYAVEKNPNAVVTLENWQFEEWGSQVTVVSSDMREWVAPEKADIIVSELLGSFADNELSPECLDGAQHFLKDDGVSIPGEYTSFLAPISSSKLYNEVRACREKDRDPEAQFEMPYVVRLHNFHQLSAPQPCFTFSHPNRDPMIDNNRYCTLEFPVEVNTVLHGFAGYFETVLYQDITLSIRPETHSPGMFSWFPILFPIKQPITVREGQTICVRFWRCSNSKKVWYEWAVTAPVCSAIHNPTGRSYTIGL
The target of test [8] is T1, Protein arginine N-methyltransferase 7. The test can be described thus: Inhibition of human PRMT7.
For test [9] the target is unchanged. The test can be described thus: Inhibition of human recombinant His-tagged PRMT7 extracted from Escherichia coli BL21 (DE3).
For test [10] the target is unchanged. The test can be described thus: Inhibition of full length human recombinant PRMT7 extracted from Sf9 cells using […] as substrate incubated for 1 hr by TopCount scintillation proximity assay. In kind it is cell-free.

With `CC1=C(C)C(=O)C(C(C)(C)CC(=O)N(CCCCSC[C@H]2O[C@@H](n3cnc4c(N)ncnc43)[C@H](O)[C@@H]2O)Cc2cccc(-c3ccc(Cl)cc3)c2)=C(C)C1=O`, the IC50 in test [1] came to 2.2 µM; in [2], 28.4 µM; in test [3] it was 2.2 µM; in test [4] it was 2.2 µM; in test [5], 2.4 µM; in [6], 2.4 µM.

As to `COc1cc(-c2ncc(F)c(Nc3ccc4nc(C)cc(N)c4c3)n2)cc(OC)c1OC`, the IC50 in test [7] is 50 µM; in [8], 5 µM.

As for `C/N=C(\N)N/N=C(\C)c1ccc2oc3ccc(/C(C)=N/N/C(N)=N/C)cc3c2c1`, the IC50 in test [9] worked out at 23.3 µM.

Consider `Nc1ncnc2c1ncn2[C@@H]1O[C@H](CSCCCCNCc2cccc(-c3ccc(Cl)cc3)c2)[C@@H](O)[C@H]1O`, for which the IC50 in test [10] was determined as 2.5 µM.
